From US20160214963A1, “INHIBITORS OF BRUTON'S TYROSINE KINASE” (Beyond Oncology Pharmaceutical LLC, priority 2013, published 2016)
pIC50, pKd: −log10 of the molar value. Where two headings read alike, the source gives them in different places.

Tests used:
JAK3 = JAK3 (Homo sapiens, UniProt P52333); test: KINOMEscan competition binding assay, Kd
Procedure: (§1) The assay is performed by combining three components: DNA-tagged kinase; immobilized ligand; and a test compound. The ability of the test compound to compete with the immobilized ligand is measured via quantitative PCR of the DNA tag. The kinase-tagged T7 phage strains were prepared in an E. coli host derived from the BL21 strain. E. coli were grown to log-phase and infected with T7 phage and incubated with shaking at 32° C. until lysis. The lysates were centrifuged and filtered to remove cell debris. The remaining kinases were produced in HEK-293 cells and subsequently tagged with DNA for qPCR detection. […] The liganded beads were blocked with excess biotin and washed with blocking buffer (SeaBlock (Pierce), 1% BSA, 0.05% Tween 20, 1 mM DTT) to remove unbound ligand and to reduce non-specific binding. […] All reactions were performed in polystyrene 96-well plates in a final volume of 0.135 ml. […] The kinase concentration in the eluates was measured by qPCR. An 11-point 3-fold serial dilution of each test compound was prepared in 100% DMSO at 100× final test concentration and subsequently diluted to 1× in the assay (final DMSO concentration=1%). […] Binding constants (Kds) were calculated with a standard dose-response curve using the Hill equation: Response=Background+(Signal−Background)/[1+(Kd^Hill Slope/Dose^Hill Slope)]. The Hill Slope was set to −1. […]

TEC = molecular target: T1, TEC (Homo sapiens, UniProt P42680); test: KINOMEscan competition binding assay, Kd
T1 sequence (P42680 1-631): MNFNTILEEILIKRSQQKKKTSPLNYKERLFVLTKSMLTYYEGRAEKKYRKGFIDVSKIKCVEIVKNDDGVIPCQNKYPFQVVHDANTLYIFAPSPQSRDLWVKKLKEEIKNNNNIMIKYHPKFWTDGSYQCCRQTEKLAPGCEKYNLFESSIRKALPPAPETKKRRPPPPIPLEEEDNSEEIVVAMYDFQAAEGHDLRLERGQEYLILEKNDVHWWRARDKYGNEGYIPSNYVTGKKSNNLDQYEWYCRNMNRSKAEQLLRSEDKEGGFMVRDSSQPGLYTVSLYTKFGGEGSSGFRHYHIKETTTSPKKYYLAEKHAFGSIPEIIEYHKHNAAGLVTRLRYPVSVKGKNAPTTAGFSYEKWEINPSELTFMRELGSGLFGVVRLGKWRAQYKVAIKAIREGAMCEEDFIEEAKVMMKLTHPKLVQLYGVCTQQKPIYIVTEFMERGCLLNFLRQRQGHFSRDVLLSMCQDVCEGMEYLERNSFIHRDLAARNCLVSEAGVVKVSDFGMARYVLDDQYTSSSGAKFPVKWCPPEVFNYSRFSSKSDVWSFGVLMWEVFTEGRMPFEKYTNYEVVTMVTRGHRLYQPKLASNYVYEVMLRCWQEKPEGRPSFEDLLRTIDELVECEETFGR
Procedure: as §1

BMX [1] = molecular target: T2, BMX (Homo sapiens, UniProt P51813); test: KINOMEscan competition binding assay, Kd; design: DNA tag for qPCR (T7 phage display or DNA tag added after HEK-293 expression); host or cells: E. coli BL21-derived host (T7 phage) or HEK-293
T2 sequence (P51813 1-675): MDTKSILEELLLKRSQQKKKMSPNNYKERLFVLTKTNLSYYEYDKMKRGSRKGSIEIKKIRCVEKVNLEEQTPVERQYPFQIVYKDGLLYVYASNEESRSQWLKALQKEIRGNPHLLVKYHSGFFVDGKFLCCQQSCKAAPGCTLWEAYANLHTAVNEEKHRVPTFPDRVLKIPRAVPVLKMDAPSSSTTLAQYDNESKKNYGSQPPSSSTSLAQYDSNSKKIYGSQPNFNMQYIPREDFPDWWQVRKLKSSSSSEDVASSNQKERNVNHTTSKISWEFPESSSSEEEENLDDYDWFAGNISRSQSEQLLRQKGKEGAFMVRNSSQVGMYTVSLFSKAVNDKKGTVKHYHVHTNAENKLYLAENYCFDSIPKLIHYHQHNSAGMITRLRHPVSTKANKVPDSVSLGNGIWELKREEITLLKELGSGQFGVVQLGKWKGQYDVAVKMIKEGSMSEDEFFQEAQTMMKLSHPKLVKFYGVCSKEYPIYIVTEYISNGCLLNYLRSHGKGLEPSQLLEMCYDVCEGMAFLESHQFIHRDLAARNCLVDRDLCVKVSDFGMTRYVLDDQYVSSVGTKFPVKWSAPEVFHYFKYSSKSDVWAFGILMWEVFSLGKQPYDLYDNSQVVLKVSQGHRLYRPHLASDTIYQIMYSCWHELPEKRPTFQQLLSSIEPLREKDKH
Excerpt: The Hill Slope was set to −1.

BTK = BTK (Homo sapiens, UniProt Q06187); test: KINOMEscan competition binding assay, Kd
Procedure: as §1

[2] = system: hypersensitive immune responses; conditions: rPCA, 30 mg/kg; cited from earlier work
arthritis [3] = conditions: 100 mg/kg oral, preventive mode; cited from earlier work
arthritis [4] = conditions: cited from earlier work
[5] = system: CD69 expression in B cells; conditions: human whole blood; read-out: IC50 IgM-stimulated CD69 expression in B cells; cited from earlier work
CD69 expression = conditions: oral 3, 30, 100 mg/kg, cited from earlier work
[6] = system: TNFα release in monocytes; conditions: read-out: IC50 IgG-FcγR mediated TNFα release; cited from earlier work
[7] = system: adjuvant-induced arthritis; conditions: rat AIA, combination; cited from earlier work
[8] = system: histamine release in mast cells; conditions: read-out: IC50 IgE-Fce cross-linking induced histamine release; cited from earlier work
PDGFRB = molecular target: T3, PDGFRB (Homo sapiens, UniProt P09619); conditions: 1 μM; cited from earlier work
T3 construct: literature Ambit

BMX [9] = molecular target: T2, BMX; conditions: at Km for ATP; cited from earlier work
MINK = molecular target: T4, MINK (Homo sapiens, UniProt Q8N4C8); conditions: cited from earlier work
T4 construct: literature Ambit

NEK11 = molecular target: T5, NEK11 (Homo sapiens, UniProt Q8NG66); conditions: 1 μM; cited from earlier work
T5 construct: literature Ambit
T5 sequence (Q8NG66 1-645): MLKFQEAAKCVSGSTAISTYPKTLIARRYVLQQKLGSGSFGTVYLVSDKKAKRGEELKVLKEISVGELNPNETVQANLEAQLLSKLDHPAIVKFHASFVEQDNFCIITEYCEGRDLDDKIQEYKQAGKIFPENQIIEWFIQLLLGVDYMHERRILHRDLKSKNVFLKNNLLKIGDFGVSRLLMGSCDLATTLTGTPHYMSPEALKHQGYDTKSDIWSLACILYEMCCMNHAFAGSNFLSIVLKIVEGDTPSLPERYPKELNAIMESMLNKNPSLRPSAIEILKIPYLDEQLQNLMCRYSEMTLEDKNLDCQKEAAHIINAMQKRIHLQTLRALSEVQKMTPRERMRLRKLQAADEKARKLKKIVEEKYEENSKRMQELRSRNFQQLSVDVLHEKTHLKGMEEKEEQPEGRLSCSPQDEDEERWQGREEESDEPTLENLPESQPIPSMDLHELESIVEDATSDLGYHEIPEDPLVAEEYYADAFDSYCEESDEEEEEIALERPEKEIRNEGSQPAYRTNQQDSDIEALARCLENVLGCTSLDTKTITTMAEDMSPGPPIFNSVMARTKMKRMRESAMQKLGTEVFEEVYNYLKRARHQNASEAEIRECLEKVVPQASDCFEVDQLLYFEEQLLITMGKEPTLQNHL

CASK = molecular target: T6, CASK (Homo sapiens, UniProt O14936); conditions: 1 μM; cited from earlier work
T6 construct: literature Ambit
T6 sequence (O14936 1-926): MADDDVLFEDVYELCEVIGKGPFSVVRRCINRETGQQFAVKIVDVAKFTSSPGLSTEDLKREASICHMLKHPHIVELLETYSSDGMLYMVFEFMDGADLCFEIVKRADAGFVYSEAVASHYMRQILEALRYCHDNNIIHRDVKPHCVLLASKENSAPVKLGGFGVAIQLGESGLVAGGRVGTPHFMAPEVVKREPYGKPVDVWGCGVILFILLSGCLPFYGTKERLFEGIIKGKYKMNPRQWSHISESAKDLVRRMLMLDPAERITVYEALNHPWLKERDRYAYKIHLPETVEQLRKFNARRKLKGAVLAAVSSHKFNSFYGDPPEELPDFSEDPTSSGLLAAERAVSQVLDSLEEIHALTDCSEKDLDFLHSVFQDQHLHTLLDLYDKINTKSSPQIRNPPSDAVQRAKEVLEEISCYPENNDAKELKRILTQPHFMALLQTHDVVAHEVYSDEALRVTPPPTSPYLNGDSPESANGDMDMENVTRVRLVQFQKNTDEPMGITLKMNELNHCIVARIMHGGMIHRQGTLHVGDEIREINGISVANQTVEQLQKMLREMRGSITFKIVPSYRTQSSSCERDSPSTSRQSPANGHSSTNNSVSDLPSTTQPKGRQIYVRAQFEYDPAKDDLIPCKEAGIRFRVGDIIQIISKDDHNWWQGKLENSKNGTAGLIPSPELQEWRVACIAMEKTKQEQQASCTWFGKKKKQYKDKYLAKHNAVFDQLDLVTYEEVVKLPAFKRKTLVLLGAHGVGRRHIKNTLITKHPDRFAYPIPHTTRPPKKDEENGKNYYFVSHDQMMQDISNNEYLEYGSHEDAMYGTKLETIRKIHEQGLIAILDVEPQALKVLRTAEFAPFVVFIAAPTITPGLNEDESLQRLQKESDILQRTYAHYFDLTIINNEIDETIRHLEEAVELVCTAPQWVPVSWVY

[10] = system: systemic lupus erythematosus (SLE); conditions: mouse model of SLE; cited from earlier work
arthritis [11] = conditions: mice; cited from earlier work

Sequence of BTK (Q06187 whole entry): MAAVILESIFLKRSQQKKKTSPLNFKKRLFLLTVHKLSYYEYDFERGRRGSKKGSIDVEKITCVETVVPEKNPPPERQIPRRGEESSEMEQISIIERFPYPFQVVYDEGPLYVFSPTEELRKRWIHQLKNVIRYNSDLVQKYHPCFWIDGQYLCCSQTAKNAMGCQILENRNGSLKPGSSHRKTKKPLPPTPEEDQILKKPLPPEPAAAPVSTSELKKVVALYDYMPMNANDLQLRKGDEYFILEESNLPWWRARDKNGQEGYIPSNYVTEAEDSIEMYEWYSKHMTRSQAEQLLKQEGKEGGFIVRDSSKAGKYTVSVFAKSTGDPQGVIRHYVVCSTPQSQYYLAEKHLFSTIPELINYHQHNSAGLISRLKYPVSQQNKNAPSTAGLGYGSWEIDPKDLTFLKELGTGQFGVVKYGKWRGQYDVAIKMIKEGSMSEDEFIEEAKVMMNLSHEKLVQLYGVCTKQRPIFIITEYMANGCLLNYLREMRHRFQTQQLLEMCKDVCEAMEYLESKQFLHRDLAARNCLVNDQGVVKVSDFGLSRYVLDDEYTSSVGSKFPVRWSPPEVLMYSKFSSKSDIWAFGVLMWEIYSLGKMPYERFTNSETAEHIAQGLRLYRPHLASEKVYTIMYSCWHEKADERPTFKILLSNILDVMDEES
T4 sequence (Q8N4C8 whole entry): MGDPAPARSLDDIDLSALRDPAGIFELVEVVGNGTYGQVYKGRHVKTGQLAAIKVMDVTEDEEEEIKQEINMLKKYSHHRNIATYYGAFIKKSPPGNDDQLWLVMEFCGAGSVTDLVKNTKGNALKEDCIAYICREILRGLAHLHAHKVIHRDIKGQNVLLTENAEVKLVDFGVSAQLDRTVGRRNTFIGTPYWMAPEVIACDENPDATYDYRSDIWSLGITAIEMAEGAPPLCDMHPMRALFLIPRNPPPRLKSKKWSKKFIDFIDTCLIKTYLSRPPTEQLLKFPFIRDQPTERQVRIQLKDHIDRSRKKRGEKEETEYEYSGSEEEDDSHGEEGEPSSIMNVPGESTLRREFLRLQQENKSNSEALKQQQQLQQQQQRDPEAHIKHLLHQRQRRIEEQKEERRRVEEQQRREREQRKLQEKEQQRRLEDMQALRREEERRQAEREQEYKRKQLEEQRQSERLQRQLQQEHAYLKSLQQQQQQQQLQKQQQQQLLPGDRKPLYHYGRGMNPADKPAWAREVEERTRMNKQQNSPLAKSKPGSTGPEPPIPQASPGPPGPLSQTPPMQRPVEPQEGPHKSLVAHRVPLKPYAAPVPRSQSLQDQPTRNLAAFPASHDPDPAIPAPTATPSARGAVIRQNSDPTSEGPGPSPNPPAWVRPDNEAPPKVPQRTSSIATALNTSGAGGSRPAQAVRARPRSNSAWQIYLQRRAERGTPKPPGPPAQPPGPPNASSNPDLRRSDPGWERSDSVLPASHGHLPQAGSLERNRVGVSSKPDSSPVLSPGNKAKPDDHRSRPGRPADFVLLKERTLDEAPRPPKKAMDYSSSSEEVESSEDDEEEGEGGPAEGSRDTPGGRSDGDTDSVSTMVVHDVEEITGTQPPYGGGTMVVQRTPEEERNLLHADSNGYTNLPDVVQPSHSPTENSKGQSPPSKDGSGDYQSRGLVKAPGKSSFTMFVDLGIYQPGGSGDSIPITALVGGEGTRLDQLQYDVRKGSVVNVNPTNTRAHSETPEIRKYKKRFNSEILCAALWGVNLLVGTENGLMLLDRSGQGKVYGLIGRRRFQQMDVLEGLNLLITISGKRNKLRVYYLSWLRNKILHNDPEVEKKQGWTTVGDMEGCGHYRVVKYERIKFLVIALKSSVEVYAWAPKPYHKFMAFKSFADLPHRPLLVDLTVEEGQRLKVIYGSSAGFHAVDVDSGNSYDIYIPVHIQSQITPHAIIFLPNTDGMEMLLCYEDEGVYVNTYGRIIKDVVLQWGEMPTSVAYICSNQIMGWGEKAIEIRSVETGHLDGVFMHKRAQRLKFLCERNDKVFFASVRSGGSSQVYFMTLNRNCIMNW
T3 sequence (P09619 33-1106): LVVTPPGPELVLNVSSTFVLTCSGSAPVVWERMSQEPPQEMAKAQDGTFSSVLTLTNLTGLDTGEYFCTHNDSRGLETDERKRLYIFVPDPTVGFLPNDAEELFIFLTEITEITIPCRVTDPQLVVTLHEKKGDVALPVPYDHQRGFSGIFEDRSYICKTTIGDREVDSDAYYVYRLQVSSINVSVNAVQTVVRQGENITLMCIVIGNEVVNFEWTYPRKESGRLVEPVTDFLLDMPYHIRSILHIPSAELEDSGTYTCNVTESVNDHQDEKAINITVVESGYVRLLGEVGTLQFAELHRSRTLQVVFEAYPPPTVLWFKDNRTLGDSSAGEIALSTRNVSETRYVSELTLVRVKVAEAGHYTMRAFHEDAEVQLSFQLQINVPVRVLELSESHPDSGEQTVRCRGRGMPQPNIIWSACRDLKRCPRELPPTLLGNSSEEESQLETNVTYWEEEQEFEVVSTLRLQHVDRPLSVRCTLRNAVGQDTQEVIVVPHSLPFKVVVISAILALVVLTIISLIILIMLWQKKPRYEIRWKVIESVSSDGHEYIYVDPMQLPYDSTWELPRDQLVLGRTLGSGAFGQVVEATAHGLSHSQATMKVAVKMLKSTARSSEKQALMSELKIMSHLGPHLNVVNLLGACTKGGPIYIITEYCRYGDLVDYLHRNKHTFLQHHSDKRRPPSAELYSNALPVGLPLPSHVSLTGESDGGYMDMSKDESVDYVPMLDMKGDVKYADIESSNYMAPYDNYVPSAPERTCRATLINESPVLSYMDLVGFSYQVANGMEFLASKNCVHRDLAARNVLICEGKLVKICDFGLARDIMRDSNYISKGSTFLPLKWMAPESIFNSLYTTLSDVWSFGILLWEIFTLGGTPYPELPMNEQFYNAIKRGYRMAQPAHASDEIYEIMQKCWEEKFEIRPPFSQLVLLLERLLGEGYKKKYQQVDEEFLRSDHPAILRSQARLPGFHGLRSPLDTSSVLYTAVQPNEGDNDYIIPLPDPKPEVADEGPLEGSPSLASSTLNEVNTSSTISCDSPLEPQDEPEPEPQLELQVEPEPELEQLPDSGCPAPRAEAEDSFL
Sequence of JAK3 (P52333 814-1124 limits assumed): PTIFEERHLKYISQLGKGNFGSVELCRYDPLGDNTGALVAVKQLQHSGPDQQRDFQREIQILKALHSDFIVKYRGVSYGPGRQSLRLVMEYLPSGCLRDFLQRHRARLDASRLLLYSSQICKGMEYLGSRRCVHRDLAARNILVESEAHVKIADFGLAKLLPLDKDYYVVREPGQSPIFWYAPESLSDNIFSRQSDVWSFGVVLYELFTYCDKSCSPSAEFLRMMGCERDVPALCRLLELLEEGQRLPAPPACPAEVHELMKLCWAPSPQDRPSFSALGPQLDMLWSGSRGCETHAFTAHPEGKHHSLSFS

C=CC(=O)Nc1cccc(Nc2nc(-c3cccc(-n4ncc5cc(C(C)(C)C)cc(F)c5c4=O)c3CO)cn(C)c2=O)c1 [CY-130526]
pKd (JAK3): 4.85
pKd (TEC): 5.62
pKd (BMX [1]): 5.89
pKd (BTK): 9.07
selectivity for BTK over TEC, BMX (BTK; kinases inhibited the most next to BTK): > 1000 fold

CN1CCN(c2ccc(Nc3cc(-c4cccc(-n5ccc6cc(C7CC7)cc(F)c6c5=O)c4CO)cn(C)c3=O)nc2)CC1 [RN-486]
effect in blocking hypersensitive immune responses [2]: 91%
inhibition of arthritis as measured by clinical scores (arthritis [3]): complete inhibition
disease progression (arthritis [4]; mCIA and mCAIA models): dose-dependently inhibits
progression of disease (arthritis [4]; therapeutic mode, 30 mg/kg): did not show progression of disease
pIC50 [5]: 7.77
inhibition of ex vivo anti-IgD stimulated CD69 expression (CD69 expression; 3 and 6 h postdose, all doses): completely inhibited
inhibition of ex vivo anti-IgD stimulated CD69 expression (CD69 expression; 24 h postdose): 50-80%
pIC50 [6]: 8.40
effect with low dose methotrexate [7]: additive effects
pIC50 [8]: 7.53

Cc1c(NC(=O)c2ccc(C(C)(C)C)cc2)cccc1-c1cn(C)c(=O)c(Nc2ccc(C(=O)N3CCOCC3)cc2)n1 [CGI-1746]
displacement of control ligand, PDGFRB (PDGFRB): 59%
pIC50 (BMX [9]): 5.73
displacement of control ligand, MINK (MINK; 1 μM): 77%
pKd (MINK; read-out: Kd MINK1): 4.40
displacement of control ligand, NEK11 (NEK11): 59%
displacement of control ligand, CASK (CASK): 69%

C=CC(=O)N1CCCC(n2nc(-c3ccc(Oc4ccccc4)cc3)c3c(N)ncnc32)C1 (stereo not drawn) [PCI-32765]
auto-antibody production and development of kidney disease [10]: inhibited
course of arthritis (arthritis [11]): can reverse
level of circulating autoantibodies (arthritis [11]): reduces
